Patent US10653676B2 (Dana-Farber Cancer Institute, Inc., priority 2010, dated 2020)

Legend:
USP5 = biological target: T1, USP5 (Homo sapiens, UniProt P45974); assay: ubiquitin-AMC assay with USP5; type: biochemical
T1 construct: purchased Boston Biochem
T1 sequence (P45974 1-858): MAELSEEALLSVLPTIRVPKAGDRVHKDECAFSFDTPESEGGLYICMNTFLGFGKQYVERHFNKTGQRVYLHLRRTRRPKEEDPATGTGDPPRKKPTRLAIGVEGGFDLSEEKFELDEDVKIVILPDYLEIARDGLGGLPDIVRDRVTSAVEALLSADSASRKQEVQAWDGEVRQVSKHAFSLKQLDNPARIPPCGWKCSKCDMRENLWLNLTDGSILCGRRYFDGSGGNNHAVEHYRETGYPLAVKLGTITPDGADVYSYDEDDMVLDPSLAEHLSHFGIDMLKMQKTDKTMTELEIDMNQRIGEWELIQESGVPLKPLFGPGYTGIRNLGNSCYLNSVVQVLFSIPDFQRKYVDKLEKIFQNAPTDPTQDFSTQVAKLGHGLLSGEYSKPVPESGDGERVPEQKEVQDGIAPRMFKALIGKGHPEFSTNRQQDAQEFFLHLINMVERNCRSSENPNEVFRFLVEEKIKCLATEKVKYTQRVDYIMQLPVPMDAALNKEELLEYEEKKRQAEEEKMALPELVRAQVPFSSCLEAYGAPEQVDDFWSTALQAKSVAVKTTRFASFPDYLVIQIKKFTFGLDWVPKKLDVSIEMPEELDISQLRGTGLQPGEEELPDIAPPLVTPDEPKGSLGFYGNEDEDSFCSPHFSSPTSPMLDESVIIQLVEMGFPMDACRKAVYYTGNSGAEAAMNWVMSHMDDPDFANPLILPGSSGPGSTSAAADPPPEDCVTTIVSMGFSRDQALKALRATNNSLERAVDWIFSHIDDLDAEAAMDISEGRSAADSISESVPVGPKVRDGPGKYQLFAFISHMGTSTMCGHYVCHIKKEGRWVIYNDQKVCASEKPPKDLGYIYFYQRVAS
Procedure: (§1) FIG. 6 is a composite figure showing that C527 is a pan-deubiqutinating enzyme inhibitor […]. Ubiquitin-AMC assay was performed using purified (FIG. 6A) USP12/UAF1/WDR20 (FIG. 6B) USP5 and (FIG. 6C) UCH-L1. Enzymes were incubated with DMSO or C527 at indicated concentrations for 3 h, followed by the addition of Ub-AMC at 0.5 μM final concentration. The fluorescence at […] was measured to indicate the enzymatic activity. FIG. 6D is a summary showing the IC50 of C527 against the indicated enzymes.
(§2) The in vitro enzymatic assays were performed using purified proteins from Sf9 cells as described previously (Cohn et al.). The assays using ubiquitin-AMC (Ub-7-amido-4-methylcoumarin; Boston Biochem) as substrate was carried out in a reaction buffer containing 20 mM HEPES-KOH (pH 7.8), 20 mM NaCl, 0.1 mg/ml ovalbumin, 0.5 mM EDTA and 10 mM dithiothreitol. The fluorescence was measured by FluoStar Galaxy Fluorometer (BMG Labtech). For the Ub-vinylsulfone (VS) assay, the proteins were incubated with Ub-VS at 0.5 μM final concentration for 1 h at 30° C., followed by the immunoblotting analysis.
(§3) To examine the specificity of C527 in USP1/UAF1 inhibition, its ability to inhibit other DUB enzymes in vitro was examined. […] Moreover, the active complex of USP12 contains an additional WD40 subunit (WDR20). […]

[1] = test system: HeLa cells, integrated with the NHEJ reporter; assay: NHEJ reporter assay; type: cell-based, human; details: same condition as HR assay; FIG. 8B
Procedure: FIG. 8 is a composite figure showing that C527 inhibits homologous recombination repair. […] U2OS-DRGFP cells were transfected with I-SCE-I and then exposed to C527 at the indicated concentration for 24 h. Cells were then subjected to flow cytometry analysis. The percentage of GFP positive cells was normalized by solvent vehicle treated group. […] HeLa cells, integrated with the NHEJ reporter, were treated with C527 and analyzed as described in (FIG. 8A). […] HeLa cells were pre-treated with DMSO or C527 at the indicated concentration and then exposed to camptothecin (CPT) for 1 hr. RAD51 foci were detected using immunofluorescence.
Disruption of FANCD2 monoubiquitination or of USP1 activity (Oestergaard V H, Langevin F, Kuiken H J, et al. Deubiquitination of FANCD2 is required for DNA crosslink repair. Mol Cell. 2007; 28:798-809; Kim J M, Parmar K, Huang M, et al. Inactivation of murine Usp1 results in genomic instability and a Fanconi anemia phenotype. Dev Cell. 2009; 16:314-320) results in decreased HR. A gene conversion assay was used to examine the effect of C527 on cellular HR activity (FIG. 8A).

USP12/UAF1/WDR20 complex = biological target: T2, USP12/UAF1/WDR20 complex (Homo sapiens, UniProt O75317); assay: ubiquitin-AMC assay with USP12/UAF1/WDR20; type: biochemical
T2 construct: made in house; host or cells: Sf9
T2 sequence (O75317 whole entry, species assumed): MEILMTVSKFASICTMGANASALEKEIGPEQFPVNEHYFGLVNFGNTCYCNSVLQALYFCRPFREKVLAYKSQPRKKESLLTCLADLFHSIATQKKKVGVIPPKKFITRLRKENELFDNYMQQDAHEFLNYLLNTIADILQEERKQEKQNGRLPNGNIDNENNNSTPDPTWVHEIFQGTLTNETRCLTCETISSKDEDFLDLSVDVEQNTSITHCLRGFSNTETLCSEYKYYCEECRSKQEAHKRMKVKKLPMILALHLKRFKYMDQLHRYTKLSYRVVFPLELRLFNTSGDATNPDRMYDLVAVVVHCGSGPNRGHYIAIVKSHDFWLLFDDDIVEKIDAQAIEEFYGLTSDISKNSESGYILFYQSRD
T2 sequence (Q8TAF3 whole entry partner, species assumed): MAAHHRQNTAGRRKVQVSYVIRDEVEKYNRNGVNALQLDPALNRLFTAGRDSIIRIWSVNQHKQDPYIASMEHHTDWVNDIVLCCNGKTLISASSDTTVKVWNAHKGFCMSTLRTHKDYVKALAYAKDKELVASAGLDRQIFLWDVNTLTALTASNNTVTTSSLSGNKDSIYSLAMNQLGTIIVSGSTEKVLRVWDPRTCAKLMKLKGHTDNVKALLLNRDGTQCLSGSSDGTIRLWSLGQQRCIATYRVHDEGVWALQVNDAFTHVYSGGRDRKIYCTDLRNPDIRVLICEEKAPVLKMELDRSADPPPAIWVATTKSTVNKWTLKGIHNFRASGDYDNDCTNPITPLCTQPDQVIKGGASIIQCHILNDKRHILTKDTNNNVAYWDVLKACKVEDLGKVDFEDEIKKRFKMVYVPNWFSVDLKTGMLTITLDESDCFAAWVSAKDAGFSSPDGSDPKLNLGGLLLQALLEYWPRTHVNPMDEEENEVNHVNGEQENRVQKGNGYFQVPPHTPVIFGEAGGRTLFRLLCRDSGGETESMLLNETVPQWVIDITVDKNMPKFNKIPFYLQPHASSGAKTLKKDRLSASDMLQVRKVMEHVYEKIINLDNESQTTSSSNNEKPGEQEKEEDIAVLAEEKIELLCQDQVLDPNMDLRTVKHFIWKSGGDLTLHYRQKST
T2 sequence (Q8TBZ3 whole entry partner, species assumed): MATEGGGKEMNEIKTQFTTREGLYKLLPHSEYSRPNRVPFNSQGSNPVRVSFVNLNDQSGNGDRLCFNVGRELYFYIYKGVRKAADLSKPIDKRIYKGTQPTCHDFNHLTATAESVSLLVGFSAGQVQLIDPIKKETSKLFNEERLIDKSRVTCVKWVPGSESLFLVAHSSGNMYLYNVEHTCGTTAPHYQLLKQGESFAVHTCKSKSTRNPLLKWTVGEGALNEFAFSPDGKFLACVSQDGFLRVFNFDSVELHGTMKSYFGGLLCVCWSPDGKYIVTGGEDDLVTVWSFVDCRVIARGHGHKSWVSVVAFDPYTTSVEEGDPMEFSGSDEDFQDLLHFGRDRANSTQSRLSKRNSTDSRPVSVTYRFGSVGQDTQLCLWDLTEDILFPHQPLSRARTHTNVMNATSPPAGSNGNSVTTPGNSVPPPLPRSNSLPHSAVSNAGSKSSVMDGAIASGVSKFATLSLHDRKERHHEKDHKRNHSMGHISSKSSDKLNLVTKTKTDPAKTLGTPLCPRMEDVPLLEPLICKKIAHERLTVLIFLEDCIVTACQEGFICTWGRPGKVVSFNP
Procedure: as §1, §2, §3

[2] = test system: endogenous DUB enzyme complexes; assay: HA-Ub-VS labelling of other endogenous DUBs in HeLa cell extracts; type: biochemical, human; details: HeLa cell extracts pretreated 4 h (Ub-Ald 5 μM), then Ub-VS 40 min at 30° C.; FIG. 7
Procedure: FIG. 7 is a composite figure depicting preferential inhibition of the activity of native USP1/UAF1 by C527. HeLa cell extracts were incubated with ubiquitin-aldehyde (Ub-Ald, 5 μM) or C527 at indicated concentrations for 4 h, followed by the addition of 0.5 μM Ub-Vs for 40 min. The reaction was split into two aliquots and subjected to immunoblotting for HA or USP1, respectively.
The ability of C527 to inhibit the deubiquitinating activity of native USP1 complexes derived from human cells was determined next (FIG. 7). For this purpose, the HA-tagged ubiquitin-VS, an affinity reagent known to covalently modify and trap active DUB enzymes in cell extracts was used. Cell extracts prepared from HeLa cells were pretreated with increasing concentrations of C527 for 4 h, followed by the incubation with Ub-VS for 40 min at 30° C. The enzymatic activity of endogenous DUBs was indicated by the conjugation of Ub-VS, detected as HA-labeling (see FIG. 7, high molecular weight bands). […] Ub-VS conjugation was inhibited by ubiquitin-aldehyde (Ub-Ald), a non-specific inhibitor of DUBs (lane 3).

O=C1c2ccccc2C(=O)c2oc(-c3ccc(F)cc3)nc21 [Formula IV (527)]
IC50 compared with USP1/UAF1 (USP5; FIG. 6D): slightly higher | DUB activity of the USP5 enzyme (USP5; in vitro, FIG. 6B): inhibited | non-homologous end joining (NHEJ) activity [1]: did not inhibit | IC50 compared with USP1/UAF1 (USP12/UAF1/WDR20 complex; FIG. 6D): slightly higher | DUB activity of the USP12/UAF1/WDR20 complex (USP12/UAF1/WDR20 complex; in vitro, FIG. 6A): inhibited | Ub-VS labeling of endogenous DUBs (HA-labeling) [2]: failed to inhibit
